Where no end group is shown, it is not given here.
Legend:
[1] = tested on: polymicrobial flora of the oral cavity; assay: Microbicidal activity in human saliva; type: cell-based
bacteria = conditions: repeated subcultures at one-half MIC; Steinberg et al., 1997; cited from earlier work

| Substance | microbicidal activity in human saliva [1] | development of resistance (bacteria) |
| --- | --- | --- |
| RGGLCYCRGRFCVCVGR [native IB-367] | retains its microbicidal activity |  |
| PG-1: protegrin peptide PG-1 (RGGRLCYCRRRFCVCVGR; ends and bridges not checked; cysteine pairing not given here; UniProt P32194 131-148, looked up) |  | did not result in the development of resistance |
